Results on nine compounds are retold here after ChEMBL document CHEMBL1150140, “Three new C-14 oxygenated taxanes from the wood of Taxus yunnanensis” (J Nat Prod, 2002).

Assay [1] in a line: Antiproliferative activity against mouse Colon 26-L5 cells by MTT assay. It is filed as functional, cell-based. A general note: Tetrazolium assays rely on reduction of a dye to a coloured formazan, in cell work by metabolically active cells.
For a further assay, the system named is HT-1080. The assay can be described thus: Antiproliferative activity against human HT1080 cells by MTT assay. It is filed as functional, cell-based.

≈ marks a conversion by molar mass, not a printed value. A value given as a limit tells only on which side of the number the result lay.

`C=C1[C@@H](OC(C)=O)CC[C@@]2(C)C[C@H](OC(C)=O)C3=C(C)C[C@H](OC(=O)[C@@H](C)CC)[C@@H]([C@@H](OC(C)=O)[C@H]12)C3(C)C`: the EC50 (usually the concentration at which the effect is half-maximal) came to 84.1 µg/mL (≈ 154 µM) in assay [1] and 84.9 µg/mL (≈ 155 µM) in the assay with HT-1080.

Regarding `COc1cc(C[C@@H](CO)[C@H](CO)Cc2ccc(O)c(OC)c2)ccc1O` [(+)-SECOISOLARICIRESINOL], the EC50 in assay [1] is 60.2 µg/mL (≈ 166 µM); with HT-1080 it was 5.9 µg/mL (≈ 16.3 µM).

In the case of `COc1cc([C@H]2c3cc(O)c(OC)cc3C[C@H]3C(=O)OC[C@H]23)ccc1O` [ALPHA-CONIDENDRIN], the EC50 (in assay [1]; in the assay with HT-1080) was greater than 100 µg/mL in each case.

`O=c1[nH]cc(F)c(=O)[nH]1` [FLUOROURACIL]: the EC50 was 0.07 µg/mL (≈ 0.538 µM) in assay [1] and 0.29 µg/mL (≈ 2.23 µM) with HT-1080.

As for `C=C1[C@@H](OC(C)=O)CC[C@@]2(C)C[C@H](O)C3=C(C)C[C@H](OC(=O)[C@@H](C)CC)[C@@H]([C@@H](OC(C)=O)[C@H]12)C3(C)C` [HONGDOUSHAN A], the results for the EC50 (in assay [1]; in the assay on HT-1080) were 40.1 µg/mL (≈ 79.5 µM) and 61 µg/mL (≈ 121 µM), respectively.

With `C=C1[C@@H](OC(C)=O)CC[C@@]2(C)C[C@H](O)C3=C(C)C[C@H](OC(=O)CC)[C@@H]([C@@H](OC(C)=O)[C@H]12)C3(C)C` [HONGDOUSHAN B], the EC50 is 70.4 µg/mL (≈ 148 µM) in assay [1] and greater than 100 µg/mL with HT-1080.

Consider `C=C1[C@@H](O)CC[C@@]2(C)C[C@H](O)C3=C(C)C[C@H](OC(=O)[C@@H](C)CC)[C@@H]([C@@H](OC(C)=O)[C@H]12)C3(C)C` [HONGDOUSHAN C], for which the results for the EC50 (in assay [1]; in the assay on HT-1080) were 3.8 µg/mL (≈ 8.21 µM) and 61.1 µg/mL (≈ 132 µM), respectively.

As to `C=C1[C@@H](OC(C)=O)CC[C@]2(C)[C@@H]1C[C@@H]1C[C@H](OC(C)=O)C(C)=C([C@@H](OC(C)=O)[C@@H]2OC(C)=O)C1(C)C` [TAXUSIN], the EC50 is 51.7 µg/mL (≈ 102 µM) in assay [1] and 61.4 µg/mL (≈ 122 µM) with HT-1080.

Consider `CC(=O)O[C@H]1C[C@]2(C(C)(C)O)C(=C1C)[C@@H](O)[C@@H](OC(=O)c1ccccc1)[C@]1(C)[C@@H](OC(C)=O)C[C@H](O)[C@@]3(OC(C)=O)CO[C@H]2[C@H]31` [TAXUYUNNANINE E], for which the EC50 (in assay [1]; in the assay with HT-1080) was greater than 100 µg/mL in each case.
